# Reference: US20250215013A1, “SUBSTITUTED TRICYCLIC COMPOUNDS AS PARP INHIBITORS AND THE USE THEREOF” (IMPACT THERAPEUTICS (SHANGHAI), INC., priority 2022, published 2025)
# Key:
# [1] = system: MDA-MB-436 cells; assay: Growth inhibition assay against BRCA mutant human breast cancer MDA-MB-436 cell line (CCK-8); format: cell-based; conditions: proliferation of MDA-MB-436 cells, 7 days
# [2] = target: PDE3A (Homo sapiens (Human), UniProt Q14432); assay: PDE3A fluorescence polarization (FP) assay; format: biochemical; conditions: PDE3A enzyme activity, FAM-cAMP substrate
# Description: A PDE3A fluorescence polarization (FP) assay in a multi-step format was performed using black, round bottom 384-well plates (Corning, 4514). The testing compounds were serially diluted from stock solutions to 11 concentrations with a 3-fold dilution factor using DMSO. Fifty nl of compound dilutions was mixed with 5 μl of reaction buffer (10 mM Tris-HCl, pH 7.2, 10 mM MgCl2, 0.05% NaN3, 0.1% phosphate-free BSA) containing 0.2 μM FAM-cAMP (BPS, 60200) and 2 nM PDE3A (Sino Biological, 11908-H20B1) enzyme, and incubated for 60 min at 25° C. Afterwards, 15 μl binding agent mixture (Molecular Devices, R8124) was added to each well and the plate was incubated for 60 min at 25° C. The plate was loaded to a BMG PHERAstar FSX to read Fluorescence Polarization (FP) values at a setting of: Ex: 485 nm and Em: 520 nm. Emission light intensity with polarizers parallel (Emi) and emission light intensity with polarizers perpendicular (Emi) were recorded. The Polarization (mP) values were calculated using the following formula: mP=(SignalEml−SignalEm⊥)/(SignalEml+SignalEm⊥).
# • 1) The inhibition % of a compound dose is calculated as:
# [formula] • wherein mPMin and mPMax refer to the polarization readings in the condition of substrate only and substrate+enzyme, respectively. • 2) The IC50 values were calculated from non-linear curve fitting using following regression equation using a commercial curve fitting software GraphPad Prism 9.2.0.
# [formula] • wherein, X refers to Log of compound concentration and Y refers to % Inhibition.
# [3] = target: recombinant poly(ADP-ribose) polymerase 2 (PARP2); assay: PARP2 chemiluminescent assay; format: biochemical; conditions: inhibition of PARP2 enzyme activity, chemiluminescence
# [4] = target: recombinant poly(ADP-ribose) polymerase 1 (PARP1) (Homo sapiens (Human), UniProt P09874)
# Chain of recombinant poly(ADP-ribose) polymerase 1 (PARP1) (P09874 whole entry): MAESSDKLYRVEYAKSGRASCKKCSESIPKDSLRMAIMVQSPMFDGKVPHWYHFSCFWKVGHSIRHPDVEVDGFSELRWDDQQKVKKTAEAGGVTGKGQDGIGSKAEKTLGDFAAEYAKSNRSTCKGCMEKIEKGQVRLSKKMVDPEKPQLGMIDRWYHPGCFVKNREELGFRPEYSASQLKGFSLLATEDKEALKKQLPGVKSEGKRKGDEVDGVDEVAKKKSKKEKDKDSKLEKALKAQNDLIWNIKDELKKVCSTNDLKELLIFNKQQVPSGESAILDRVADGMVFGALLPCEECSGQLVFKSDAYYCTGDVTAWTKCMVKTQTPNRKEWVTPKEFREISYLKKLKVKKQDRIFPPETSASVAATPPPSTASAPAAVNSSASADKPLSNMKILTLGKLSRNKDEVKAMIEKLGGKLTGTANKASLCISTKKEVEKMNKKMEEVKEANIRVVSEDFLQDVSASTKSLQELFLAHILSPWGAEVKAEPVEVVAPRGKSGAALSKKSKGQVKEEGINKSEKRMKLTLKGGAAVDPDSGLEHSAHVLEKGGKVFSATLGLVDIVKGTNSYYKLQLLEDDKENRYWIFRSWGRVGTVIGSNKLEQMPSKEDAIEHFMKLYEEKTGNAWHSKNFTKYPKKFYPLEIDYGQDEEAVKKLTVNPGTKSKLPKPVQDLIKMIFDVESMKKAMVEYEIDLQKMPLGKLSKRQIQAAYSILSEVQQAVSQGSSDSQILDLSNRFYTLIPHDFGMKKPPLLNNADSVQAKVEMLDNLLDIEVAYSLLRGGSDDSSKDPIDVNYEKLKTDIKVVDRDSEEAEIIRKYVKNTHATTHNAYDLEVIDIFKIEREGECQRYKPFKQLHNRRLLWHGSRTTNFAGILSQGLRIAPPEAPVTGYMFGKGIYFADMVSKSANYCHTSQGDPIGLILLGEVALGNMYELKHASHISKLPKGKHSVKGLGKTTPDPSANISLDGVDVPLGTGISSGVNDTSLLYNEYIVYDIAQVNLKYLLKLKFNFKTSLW
# Chain of PDE3A (Q14432 whole entry): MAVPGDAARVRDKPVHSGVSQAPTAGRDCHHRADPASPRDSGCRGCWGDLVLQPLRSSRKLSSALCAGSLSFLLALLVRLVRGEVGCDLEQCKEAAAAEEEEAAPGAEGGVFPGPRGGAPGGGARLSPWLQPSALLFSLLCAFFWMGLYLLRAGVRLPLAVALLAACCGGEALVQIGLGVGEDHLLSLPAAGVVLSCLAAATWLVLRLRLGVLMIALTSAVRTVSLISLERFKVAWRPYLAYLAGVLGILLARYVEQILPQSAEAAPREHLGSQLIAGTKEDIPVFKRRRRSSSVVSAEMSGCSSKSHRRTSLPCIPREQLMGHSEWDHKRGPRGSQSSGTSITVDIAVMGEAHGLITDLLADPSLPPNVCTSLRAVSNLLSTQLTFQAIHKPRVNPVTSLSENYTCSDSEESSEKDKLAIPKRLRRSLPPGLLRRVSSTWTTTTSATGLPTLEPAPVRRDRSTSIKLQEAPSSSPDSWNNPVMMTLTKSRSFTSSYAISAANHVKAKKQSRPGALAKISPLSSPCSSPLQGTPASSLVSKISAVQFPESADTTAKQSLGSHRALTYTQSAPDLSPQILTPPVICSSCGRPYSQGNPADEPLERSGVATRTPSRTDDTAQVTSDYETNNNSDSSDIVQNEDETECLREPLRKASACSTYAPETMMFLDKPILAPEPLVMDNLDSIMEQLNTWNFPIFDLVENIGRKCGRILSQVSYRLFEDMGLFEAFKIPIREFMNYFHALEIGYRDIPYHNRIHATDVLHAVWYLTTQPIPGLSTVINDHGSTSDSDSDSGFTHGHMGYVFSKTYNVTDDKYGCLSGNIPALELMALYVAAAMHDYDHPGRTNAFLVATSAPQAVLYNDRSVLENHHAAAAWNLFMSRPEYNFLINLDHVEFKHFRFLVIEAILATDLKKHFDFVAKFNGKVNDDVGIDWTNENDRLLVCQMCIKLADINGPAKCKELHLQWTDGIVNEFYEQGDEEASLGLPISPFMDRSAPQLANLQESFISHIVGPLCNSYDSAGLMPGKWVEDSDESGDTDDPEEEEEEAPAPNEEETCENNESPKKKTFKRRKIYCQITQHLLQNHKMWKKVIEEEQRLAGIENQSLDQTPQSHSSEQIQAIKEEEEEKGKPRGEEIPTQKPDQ
Compound,"IC50 ([1]; Homo sapiens, MDA-MB-436, […]) [nM]",IC50 [2] [µM],IC50 [3] [nM],IC50 [4] [nM],IC50 [1] [nM]
"CNC(=O)c1ccc(N2CCN(Cc3ccc4c([nH]c(=O)c5ccoc54)c3F)CC2)c(C)n1 [Example 43, 7-((4-(2-methyl-6-(methylcarbamoyl)pyridin-3-yl)piperazin-1-yl)methyl)-6-fluoro-furo[3,2-c]quinolin-4(5H)-one]",5.86,8.57,5580,0.39,–
"CNC(=O)c1ccc(N2CCN(Cc3ccc4c([nH]c(=O)c5ccoc54)c3F)CC2)c(F)n1 [Example 44, 7-((4-(2-fluoro-6-(methylcarbamoyl)pyridin-3-yl)piperazin-1-yl)methyl)-6-fluoro-furo[3,2-c]quinolin-4(5H)-one]",3.85,16.5,898,0.41,–
"CNC(=O)c1ccc(N2CCN(Cc3ccc4c([nH]c(=O)c5cn[nH]c54)c3F)CC2)c(F)n1 [Example 46, 7-((4-(2-fluoro-6-(methylcarbamoyl)pyridin-3-yl)piperazin-1-yl)methyl)-6-fluoro-1,5-dihydro-4H-pyrazolo[4,3-c]quinolin-4-one]",16.5,> 30,194,0.95,–
"CNC(=O)c1ccc(N2CCN(Cc3ccc4c([nH]c(=O)n5cccc45)c3F)CC2)c(C)n1 [Example 48, 8-((4-(2-methyl-6-(methylcarbamoyl)pyridin-3-yl)piperazin-1-yl)methyl)-7-fluoropyrrolo[1,2-c]quinazolin-5(6H)-one]",4.58,> 30,1980,1.76,–
"CNC(=O)c1ccc(N2CCN(Cc3ccc4c([nH]c(=O)c5c(C)cnn54)c3F)CC2)c(C)n1 [Example 57, 7-((4-(2-methyl-6-(methylcarbamoyl)pyridin-3-yl)piperazin-1-yl)methyl)-6-fluoro-3-methylpyrazolo[1,5-a]quinoxalin-4(5H)-one]",10.6,> 30,> 10000,1.95,–
"CNC(=O)c1ccc(N2CCN(Cc3ccc4c([nH]c(=O)c5c(C)cnn54)c3F)CC2)c(F)n1 [Example 58, 7-((4-(2-fluoro-6-(methylcarbamoyl)pyridin-3-yl)piperazin-1-yl)methyl)-6-fluoro-3-methylpyrazolo[1,5-a]quinoxalin-4(5H)-one]",2.99,> 30,> 10000,1.38,–
"CCNC(=O)c1ccc(N2CCN(Cc3ccc4c([nH]c(=O)c5occc54)c3F)CC2)c(F)n1 [Example 66, 7-((4-(2-fluoro-6-(ethylcarbamoyl)pyridin-3-yl)piperazin-1-yl)methyl)-6-fluorofuro[2,3-c]quinolin-4(5H)-one]",3.4,16.6,5000,1.72,–
"CNC(=O)c1ccc(N2CCN(Cc3ccc4c([nH]c(=O)c5occc54)c3F)CC2)c(Cl)n1 [Example 68, 7-((4-(2-chloro-6-(methylcarbamoyl)pyridin-3-yl)piperazin-1-yl)methyl)-6-fluorofuro[2,3-c]quinolin-4(5H)-one]",4.72,22,1870,0.52,–
"CNC(=O)c1ccc(N2CCN(Cc3ccc4c([nH]c(=O)c5cnn(C)c54)c3F)CC2)c(F)n1 [Example 92, 6-fluoro-7-((4-(2-fluoro-6-(methylcarbamoyl)pyridin-3-yl)piperazin-1-yl)methyl)-1-methyl-1,5-dihydro-4H-pyrazolo[4,3-c]quinolin-4-one]",3.48,> 30,199,0.44,–
"CNC(=O)c1ccc(N2CCN(Cc3cc4[nH]c(=O)c5occc5c4cc3F)CC2)c(F)n1 [Example 102, 7-((4-(2-fluoro-6-(methylcarbamoyl)pyridin-3-yl)piperazin-1-yl)methyl)-8-fluorofuro[2,3-c]quinolin-4(5H)-one]",5.5,> 30,1330,1.89,–
"CNC(=O)c1ccc(N2CCN(Cc3ccc4c(c3)[nH]c(=O)c3occc34)CC2)c(F)n1 [Example 112, 7-((4-(2-fluoro-6-(methylcarbamoyl)pyridin-3-yl)piperazin-1-yl)methyl)furo[2,3-c]quinolin-4(5H)-one]",0.58,1.3,158,0.26,–
"CNC(=O)c1ccc(N2CCN(Cc3ccc4c([nH]c(=O)c5cocc54)c3F)CC2)c(F)n1 [Example 115, 7-((4-(2-fluoro-6-(methylcarbamoyl)pyridin-3-yl)piperazin-1-yl)methyl)-6-fluorofuro[3,4-c]quinolin-4(5H)-one]",3.41,13.8,340,0.47,–
"CNC(=O)c1ccc(N2CCN(Cc3ccc4c([nH]c(=O)c5c(F)cnn54)c3F)CC2)c(C)n1 [Example 121, 7-((4-(2-methyl-6-(methylcarbamoyl)pyridin-3-yl)piperazin-1-yl)methyl)-3,6-difluoropyrazolo[1,5-a]quinoxalin-4(5H)-one]",1.72,10.5,2820,1.06,–
"CNC(=O)c1ccc(N2CCN(Cc3ccc4c([nH]c(=O)c5c(F)cnn54)c3F)CC2)c(F)n1 [Example 122, 7-((4-(2-fluoro-6-(methylcarbamoyl)pyridin-3-yl)piperazin-1-yl)methyl)-3,6-difluoropyrazolo[1,5-a]quinoxalin-4(5H)-one]",–,> 30,462,0.53,1.32
"Cc1cnn2c1c(=O)[nH]c1c(F)c(CN3CCN(c4ccc(C(=O)NC5CC5)nc4F)CC3)ccc12 [Example 126, 7-((4-(2-fluoro-6-(cyclopropylcarbamoyl)pyridin-3-yl)piperazin-1-yl)methyl)-6-fluoro-3-methylpyrazolo[1,5-a]quinoxalin-4(5H)-one]",4.5,> 25,731,0.48,–
"CNC(=O)c1ccc(N2CCN(Cc3ccc4c([nH]c(=O)c5c(C)cnn54)c3F)CC2)c(C#N)n1 [Example 128, 7-((4-(2-cyano-6-(methylcarbamoyl)pyridin-3-yl)piperazin-1-yl)methyl)-6-fluoro-3-methylpyrazolo[1,5-a]quinoxalin-4(5H)-one]",1.58,> 30,2500,0.48,–
"CNC(=O)c1ccc(N2CCN(Cc3ccc4c([nH]c(=O)c5c(C)cnn54)c3F)CC2)c(Cl)n1 [Example 131, 7-((4-(2-chloro-6-(methylcarbamoyl)pyridin-3-yl)piperazin-1-yl)methyl)-6-fluoro-3-methylpyrazolo[1,5-a]quinoxalin-4(5H)-one]",3.12,> 30,–,–,–
"[2H]C([2H])([2H])NC(=O)c1ccc(N2CCN(Cc3ccc4c([nH]c(=O)c5c(C)cnn54)c3F)CC2)c(F)n1 [Example 159, 6-fluoro-7-((4-(2-fluoro-6-((methyl-d3)carbamoyl)pyridin-3-yl)piperazin-1-yl)methyl)-3-methylpyrazolo[1,5-a]quinoxalin-4(5H)-one]",3.91,> 30,–,–,–
"CNC(=O)c1ccc(N2CCN(Cc3ccc4c([nH]c(=O)c5c(F)cnn54)c3Cl)CC2)c(F)n1 [Example 192, 3-fluoro-7-((4-(2-fluoro-6-(methylcarbamoyl)pyridin-3-yl)piperazin-1-yl)methyl)-6-chloropyrazolo[1,5-a]quinoxalin-4(5H)-one]",5.58,> 30,–,–,–
